According to US20070172444A1, “Hair tonics and method of screening the same” (Shiseido Company, Ltd., priority 2000, published 2007):
Values belong to the compound of their own block, whether it stands above or below them. Residues, ends and D or L forms follow the SMILES beside them. *: point of attachment. Cbz = O=C(OCc1ccccc1)*; CH2F = FC*

Legend:
precursor caspase-3 = assay: Detection of precursor and activated caspase-3 in Pam212 cells cultured with TNF α and CHX; format: cell-based, mouse; details: TNF α and CHX added, incubated six hours, antibody detection
Description: The precursor caspase-3 was detected in almost all cells, whereas activated caspase-3 was not detected.

human hair follicles = assay: Human hair follicle organ culture (hair extension, retention of hair bulb morphology); format: cell-based; details: for extension of hair: 7 days
Experimental: Three antibiotics of penicillin, streptomycin and fungizone were added to the Williams E medium (Gibco), and the medium to which 10 ng/ml hydrocortisone, 10 μg/ml insulin, 10 ng/ml sodium pentaselenate and 10 μg/ml transferrin were further added was made the insulin-containing medium, and the medium to which they were not added was made the basal medium, and were used in a human hair follicle organ culture.
(§1) Using a microtome under a stereoscopic microscope, hair follicles in the growth phase were isolated from a human scalp. The isolated hair follicles were washed in the basal medium followed by the measurement of length, and then immersed in the insulin-containing medium (a 24-well microplate was used; 1 ml per well), and was cultured overnight at 37° C. in an atmospheric condition containing 5% CO2. After measuring the length again, hair follicles of which length extension was 0.25 mm or longer and of which morphology in the growth phase was retained were selected, and were divided in groups of 10 to 12 pieces so that the length extension may become equal. For each group, the medium was changed to one containing test substances, and the culturing was continued under the above gas phase condition.
The extension of hair follicles was determined over time by inserting a micrometer into the eyepiece of an inverted microscope. Photographs of the whole hair follicles and hair bulbs were taken by a camera connected to the inverted microscope.
On the second day of culturing, the medium was changed to one in which TGF-β2 was added to a final concentration of 50 ng/ml, and the culturing was continued for five days while observing the extension of hair follicles and morphological changes. […] Thus, it was estimated that TGF-β2 has an effect of promoting the regression phase.
The method was performed in accordance with the human hair follicle organ culture method. On the second day of culturing, the medium was changed to one in which anti-TGF-β antibody (manufactured by Genzyme) having the effect of neutralizing TGF-β or the control mouse IgG were added to a final concentration of 20 μg/ml or 100 μg/ml, and culturing was continued for 4-7 days while observing the extension and morphological changes of hair follicles.
The medium was changed to one in which fetuin (final concentration: 1, 10, 50 μM) or the control bovine serum albumin (final concentration: 50 μM) was added to the basal medium, and culturing was continued for a further 7 days while observing the extension and morphological changes of hair follicles.
as §1, with “that” for “that the”
The extension of hair follicles was determined with time by inserting a micrometer into the eyepiece of an inverted microscope. Photographs of the whole hair follicles and hair bulbs were taken by a camera connected to the inverted microscope.
Carbobenzoxy-valyl-alanyl-β-methyl-aspar-1-yl-fluoromethane (z-VAD-fmk) is known to inhibit almost all caspases. […] The medium was changed to one in which z-VAD-fmk (final concentration: 1, 10, 100 μM) was dissolved in DMSO or the control DMSO was added to the basal medium, and culturing was continued for further 7 days while observing the extension and morphological changes of hair follicles. […]

isolated human hair = assay: Extension of isolated human hair; format: cell-based; details: phyllodulcin added to isolated human hair, vs control
Experimental: The extension of hair when phyllodulcin was added to the isolated human hair was investigated. The result is as shown in a photograph in FIG. 20.

TGF-β2 = target: T1, TGF-β2 (Homo sapiens, UniProt P61812); assay: Determination of PAI-1 in human dermal papilla cells cultured with TGF-β2; format: cell-based
T1 construct: host or cells: added to the culture medium of human dermal papilla cells
T1 sequence (P61812 303-414 limits assumed): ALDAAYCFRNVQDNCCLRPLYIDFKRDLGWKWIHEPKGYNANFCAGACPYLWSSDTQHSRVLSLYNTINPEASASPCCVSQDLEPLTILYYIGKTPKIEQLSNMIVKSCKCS
Experimental: The inhibition of effect of TGF-β2 can be determined as follows. Utilizing the fact that TGF-β2 induces the production of PAI-1, cells (e.g., dermal papilla cells) are cultured in the coexistence of TGF-β2 and the test substance, PAI-1 in the medium is determined, and to determine whether or not PAI-1 was inhibited as compared to the control.
The medium in which 10% bovine fetal serum was added to the DMEM medium to which three antibiotics of penicillin, streptomycin and fungizone had been added was used, and human dermal papilla cells were cultured in a 96-well plate (about 7,500 cells per well). First, dose dependency on TGF-β2 of the increased expression of PAI-1 was examined. At a suitable cell density, the medium was changed to ones containing various concentrations of TGF-β2, and was further cultured for 24 hours. Ten μl of the medium was taken out, and quantitated using a commercially available PAI-1 determination kit (TintElize PAI-1: biopool).
Then, the present inventors investigated, as described below, whether or not TGF-β2 has the effect of inhibiting the enhanced expression of PAI-1. Phyllodulcin was dissolved in DMSO at concentrations of 0.05-50 μg/ml and used. […] At the end of culturing, the survival of cells was also determined by the Alamar Blue method.

[1] = system: human dermal papilla cells; assay: Cell survival by the Alamar Blue method; format: cell-based; details: after 24 hours culture; 100% in the case of no addition
Experimental: Then, the present inventors investigated, as described below, whether or not TGF-β2 has the effect of inhibiting the enhanced expression of PAI-1. Phyllodulcin was dissolved in DMSO at concentrations of 0.05-50 μg/ml and used. After culturing for 24 hours in a medium containing 1 ng/ml TGF-β2, 10 μl of the medium was used to determine the amount of PAI-1. At the end of culturing, the survival of cells was also determined by the Alamar Blue method.
This was performed as described below. Thus, after washing twice in a fresh medium, the medium was changed to one containing 1/10 amount of Alamar Blue (Alamar Bioscience), and was incubated at 37° C. (5% CO2) for four hours. After incubation, absorbance at 595 nm and 570 nm was measured by a microplate reader in order to calculate the Alamar Blue reduction rate for each well, which was divided by the Alamar Blue reduction rate for the negative control in which no phyllodulcin samples were added, and the survival of the cells were calculated.

Compound: COC(=O)CC(NC(=O)C(C)NC(=O)C(NC(=O)OCc1ccccc1)C(C)C)C(=O)CF (stereo not drawn) [z-VAD-fmk, Carbobenzoxy-valyl-alanyl-β-methyl-aspar-1-yl-fluoromethane] (Cbz-Val-Ala-Asp(OMe)-CH2F; configuration not given here)
activation of the precursor caspase-3 (precursor caspase-3): completely inhibit the activation of the precursor caspase-3 | Ratio of hair follicles in which the morphology of the hair bulb portions was retained (human hair follicles; Experiment 2 (day 4), 10 μM, control 12.5%): 37.5% (3/8) | Ratio of hair follicles in which the morphology of the hair bulb portions was retained (human hair follicles; Experiment 2 (day 6) as printed, 20 μM, control 20%): 60% (6/10) | extension of hair (human hair follicles; z-VAD-fmk 1, 10, 100 μM, vs control DMSO): significantly extended hair

amount of PAI-1 (TGF-β2; 1 ng/ml TGF-β2, 24 hours, 100 in the case of no addition, phyllodulcin 0.05-50 μg/ml): 18
Compound: COc1ccc([C@H]2Cc3cccc(O)c3C(=O)O2)cc1O [phyllodulcin]
extension of hair (isolated human hair): the hair is extended as compared to the control | Alamar Blue reduction rate (%) [1]: 95% | hair extension (human hair follicles; 0.6 μg/ml, eighth day of culturing, vs solvent control): significantly promoted

Compound: fetuin
extension of hair (human hair follicles; fetuin 1, 10, 50 μM, vs control bovine serum albumin 50 μM): significantly extended hair

Compound: TGF-β2: transforming growth factor β2
expression of PAI-1 (TGF-β2; various concentrations of TGF-β2, 24 hours): an increase in PAI-1 in a dose dependent manner | regression phase-like morphological changes (human hair follicles; TGF-β2 50 ng/ml, sixth day of culturing, vs non-added control): regression phase-like morphological changes were promoted
